US10139420B2, “Methods for treating vaso-occlusive crisis using non-modified annexin V” (ISNERM (Institut National de la Sante et de la Recherche …, priority 2011, dated 2018)

What was measured:
[1] = test system: SCD patients; conditions: long term treatment; cited from earlier work
[2] = test system: wild type mice; assay: Circulating PS+ MP in platelet-free plasma by FACS (annexin-V labeling), wild type mice; assay type: in vivo, mouse; conditions: TSP1 injection (1 mg/kg), within 5 minutes, vs control
Method: (§1) We characterized the induction of VOC in SAD transgenic mice (18, 19) according to our previously published method, in response to the intravenous administration of TSP1 (1 mg/kg), TSP1-derived peptides 4N1-1 or 4N1-2, or purified erythrocyte MP. Briefly, mice were anesthetized with isoflurane and monitored to prevent any cardiorespiratory depression. Mice were shaved and placed in the decubitus position on a heating blanket (38° C.). We used a Vivid 7 echograph (GE Medical Systems®, Horten, Norway) equipped with a 12-MHz linear transducer (12 L). […] A pulsed Doppler spectrum was recorded and peak systolic, end-diastolic and time-average mean BFV were measured in the renal artery, with Doppler beam angle correction. To calculate cardiac output, spatial flow profiles were analyzed in parasternal long-axis B-mode images of the pulmonary artery and BFV were measured as above. […] Circulating MP were quantified by FACS.
(§2) Netherlands) in the absence or presence of TSP1 (25 μg/ml), or TSP1-derived peptides 4N1-1 or 4N1-2 (25 μM). […] Erythrocytes were immediately separated and supernatant PS^+ MP quantified by FACS. […] MP concentrations were determined as previously described (20). […] MP were analyzed on a Coulter EPICS XL flow cytometer (Beckman Coulter). […] MP-size events were analyzed in FL/FSC fluorescence dot plots to determine annexin-V labeling. […]

[3] = test system: wild type mice; assay: Vaso-occlusive crises in mice: renal artery blood flow velocity by Echo-Doppler (wild type); assay type: in vivo, mouse
Method: as §1, with “L). The ultrasound probe was placed on the left side of the abdomen for examination of renal arteries, or in left lateral decubitus for cardiac output acquisition with transducer on the chest. Data were transferred on-line to an EchoPAC ultrasound image analysis workstation (GE Medical Systems®). Two-Dimensional ultrasound imaging of the abdomen in left-sided longitudinal B-mode allowed kidney width and height measurements.” for “L).”

[4] = test system: SAD mice; assay: Circulating PS+ MP in platelet-free plasma by FACS (annexin-V labeling), SAD mice; assay type: in vivo, mouse; conditions: SAD mice, TSP1 injection (1 mg/kg), within 5 minutes, vs control SAD
Method: as §1, §2

[5] = test system: SAD transgenic mice; assay: Vaso-occlusive crises in mice: renal artery blood flow velocity by Echo-Doppler, cardiac output, renal histology; assay type: in vivo, mouse; conditions: for reduction in the mean blood flow velocity of the right renal arteries: TSP1 1 mg/kg intravenous
Method: We characterized the induction of VOC in SAD transgenic mice (18, 19) according to our previously published method, in response to the intravenous administration of TSP1 (1 mg/kg), TSP1-derived peptides 4N1-1 or 4N1-2, or purified erythrocyte MP. Briefly, mice were anesthetized with isoflurane and monitored to prevent any cardiorespiratory depression. Mice were shaved and placed in the decubitus position on a heating blanket (38° C.). We used a Vivid 7 echograph (GE Medical Systems®, Horten, Norway) equipped with a 12-MHz linear transducer (12 L). The ultrasound probe was placed on the left side of the abdomen for examination of renal arteries, or in left lateral decubitus for cardiac output acquisition with transducer on the chest. Data were transferred on-line to an EchoPAC ultrasound image analysis workstation (GE Medical Systems®). Two-Dimensional ultrasound imaging of the abdomen in left-sided longitudinal B-mode allowed kidney width and height measurements. Color-coded blood flow detection by Doppler enabled renal arteries to be localized. A pulsed Doppler spectrum was recorded and peak systolic, end-diastolic and time-average mean BFV were measured in the renal artery, with Doppler beam angle correction. To calculate cardiac output, spatial flow profiles were analyzed in parasternal long-axis B-mode images of the pulmonary artery and BFV were measured as above. The following formula was applied: CO=[(V^mean·60)·(π·(Dpa/2^2)], where CO is the cardiac output in ml/minute, V^mean is the mean time-averaged BFV in cm/s and Dpa is the pulmonary artery diameter in cm. Kidney sizes and BFV were determined by the same investigator, as means of 5 to 8 measurements. Repeatability for cardiac output measurements was verified. We controlled and confirmed that kidney size was similar between SAD and wild type mice. After sacrifice, kidneys were dissected, dehydrated, mounted in paraffin, sectioned and stained by Masson trichrome. Vascular congestion was observed by phase-contrast microscopy, as large erythrocyte aggregates occluding kidney capillaries and larger vessels. In some experiments, TSP1 (1 mg/kg) or control BSA (1 mg/kg) were injected. After 5 minutes, mice were terminally anesthetized by pentobarbital overdose. Whole blood was collected through cardiac puncture, centrifuged (400 g, 15 minutes) to eliminate erythrocytes and leukocytes, and double centrifuged (12500 g, 5 minutes) to eliminate platelets with minimal activation. Supernatants were considered platelet-free plasma (PFP). Circulating MP were quantified by FACS.
We evaluated the concept that TSP1 influences VOC during SCD in vivo. We used SAD transgenic mice that express a mutated human hemoglobin β-chain known to cause sickle cell formation and sensitivity to VOC (18, 19).

[6] = test system: SAD mouse erythrocytes; assay: Echinocyte conversion and MP shedding by isolated erythrocytes (LORCA ektacytometer, microscopy, FACS), SAD; assay type: cell-based
Method: (§3) Mouse blood was obtained through retro-orbital sinus puncture, mixed with anti-coagulant heparin buffer (5 UI/ml), and collected on citrated tubes. Blood diluted 1:1 with PBS (Gibco-Life Sciences) was placed onto histopaque-1083 (Sigma) density gradients for centrifugation (600 g, 25 minutes). Erythrocyte pellets were resuspended, washed in DMEM and stored for up to 4 hours at room temperature. Erythrocyte surface CD47 expression was assessed by FACS. Fresh RBC were washed and blocked with PBS-BSA 5% for 30 min and immunoreacted with mouse-specific fluoroisothiocyanate (FITC)-coupled anti-CD47 monoclonal antibody (clone mIAP301; BD Biosciences, Le Pont de Claix, France), or matched irrelevant IgG2aκ isotype for 45 min in 2% PBS-BSA. Erythrocytes were washed in PBS-BSA 2% prior to FACS analysis. Erythrocyte phenotypes were analyzed by […] electronic microscopy. Briefly, mouse erythrocytes were fixed with glutaraldehyde 1% and paraformaldehyde 4%, dehydrated and embedded in Epon™ epoxy resin. Sections contrasted with uranyl acetate and lead citrate were examined with a JEOL JEM 1010 microscope. Average apparent spicule number was determined by direct counting in 80 to 120 cells per condition.
(§4) To trigger MP shedding, erythrocyte were suspended in polyvinylpyrrolidone (31 mPa.s) and placed in a rotating type LORCA ektacytometer (R&R Mechatronics, Hoorn, The
(§5) Netherlands) in the absence or presence of TSP1 (25 μg/ml), or TSP1-derived peptides 4N1-1 or 4N1-2 (25 μM). Shear rate was applied according to the builder's program (1500 s^−1; 2.5 minutes). Erythrocytes were immediately separated and supernatant PS^+ MP quantified by FACS. Concentrated MP stocks were generated from 10 to 20 ml of supernatant from erythrocytes suspended in RPMI-1640 (4.10^6/ml) and treated with 4N1-1. Suspensions were centrifuged at 400 g for 15 min to discard cells, and ultracentrifuged at 20500 g for 45 min to pellet MP, which were resuspended in filtered (0.2 μm) DMEM and stored at −80° C. MP concentrations were determined as previously described (20). Briefly, MP were labeled with 2 μl FITC-conjugated annexin-V (Roche Diagnostics, France) diluted in 100 μl reaction buffer with 5 mM CaCl2. CaCl2 was omitted in negative controls. MP were analyzed on a Coulter EPICS XL flow cytometer (Beckman Coulter). MP were identified in forward light scatter (FSc) and side-angle light scatter (SSc) intensity dot plots set at logarithmic gain, as events of 0.1-1 μm in diameter. MP-size events were analyzed in FL/FSC fluorescence dot plots to determine annexin-V labeling. MP concentration was determined with respect to calibrated fluorescent microbeads (Flowcount). To determine erythrocyte origin, MP were double labeled with rat PE-Cy7-coupled mouse-specific anti-Ter119 antibody (Biolegend via Ozyme, France), or matched irrelevant IgG2bκ isotype.

[7] = test system: wild type mouse erythrocytes; assay: Echinocyte conversion and MP shedding by isolated erythrocytes (LORCA ektacytometer, microscopy, FACS), wild type; assay type: cell-based; conditions: under shear, TSP1 (25 μg/ml), within minutes
Method: as §3, §4, §5

[8] = after intravenous injection (TSP1 1 mg/kg; MP 300.10^3 MP/mouse)
[9] = TSP1 and shear stress, vs control (discussion)

Compound	long term safety [1]	proportion of SCD patients in whom treatment is effective [1]	raise in plasma PS+ MP [2]	systolic, diastolic and mean blood flow velocities ([3]; TSP1 1 mg/kg intravenous)	renal perfusion ([3]; TSP1 injection)	increase in circulating PS+ MP [4]	reduction in the mean blood flow velocity of the right renal arteries ([5]; after 5 minutes)	reduction in the mean blood flow velocity of the right renal arteries ([5]; rapid)	drop in renal perfusion ([5]; TSP1 injection, within minutes)	diastolic and mean blood flow velocities [5, 8]	renal histology after Masson trichrome stain [5, 8]	systolic blood flow velocity [5, 8]	effect on sickle cells ([6]; SAD erythrocytes, TSP1 or peptide)	MP shedding by SAD erythrocytes [6, 9]	proportion of SAD echinocytes [6, 9]	increase in SAD echinocytes ([6]; under shear, TSP1 (25 μg/ml) or peptide (25 μM), vs control)	proportion of wild type echinocytes reached [7]	raise in the proportion of wild type echinocytes [7]
NC(=O)NO [hydroxy-urea]	presumptions of carcinogenesis in the long term	about 40%	–	–	–	–	–	–	–	–	–	–	–	–	–	–	–	–
TSP1: Human recombinant TSP1 produced by EMP-Genetech (Germany)	–	–	3 fold	remained unchanged	did not modify renal perfusion	3 fold	35%	20%	30%	dramatically decreased	red blood cells aggregates and vascular congestion	unchanged	did not affect sickle cells	doubled	doubled	50%	30%	over 10 fold
